Assay results published in patent US9278963B2, “Pyrimidine hydroxy amide compounds as histone deacetylase inhibitors” (Acetylon Pharmaceuticals, Inc., priority 2013, dated 2016).

Legend:
HDAC3 = HDAC3 (Homo sapiens (Human), UniProt O15379); assay: HDAC enzyme assay, HDAC3; assay type: biochemical
fetal globin (HbG) = assay: Fetal globin (HbG) induction in cultured CD34+ bone marrow cells; assay type: cell-based, human; settings: 1 μM, treatment for 4 days
[1] = system: BE(2)-C neuroblastoma cells; assay: Neuroblastoma maturation gene expression, BE(2)-C; assay type: cell-based
Method: (§1) The following is a quick summary of the HDAC neuroblastoma maturation experiments. Adherent cells were plated into 12- or 24-well plates at 10^6 cells/well and allowed to adhere for 2-4 hours. Compounds were dispensed in DMSO at the indicated concentrations using an automated liquid handling system (Tecan D300) and incubated for the indicated times at 37° C. with 5% CO2. Cells were harvested and RNA extracted using the Qiagen RNeasy Mini Kit according to manufacture protocols. The RNA was quantified and relative expression levels were assessed using the Applied Biosystems TaqMan RNA-to-Ct Kit according to manufacture protocols using the indicated TaqMan probes.
(§2) The protocol for the maturation experiments was as follows. The day before the experiment, the cells were fed in the flask by doubling the media. The cells were then harvested by adding non-enzymatic cell dissociation media and incubating at 37° C. for 15 minutes. The cells were transferred to a 50 ml tube and pipet to create a single-cell suspension. The cells were washed with PBS buffer. The cells were then resuspended in complete media at 5×10^5 cells per ml. Next, 2 ml of cells were transferred to 24- or 12-well plates. The treatment compounds were then dispensed into each well using the D300 liquid handler. The cells were then incubated for the indicated time at 37° C. The cells were harvested by scraping the cells and transferring to a 2 ml tube. The cells were spun to form a pellet. Next, RNA was extracted using the Qiagen RNeasy Mini kit according to manufacture protocols. The RNA concentration was recorded. The relative RNA levels were assessed using the Applied Biosystems TaqMan RNA-to-Ct kit according to manufacture protocols using the indicated Taqman probes.

[2] = system: SH-SY5Y neuroblastoma cells; assay: Neuroblastoma maturation gene expression, SH-SY5Y; assay type: cell-based; settings: 2 days, 3 μM
Method: as §1
as §2, with “The treatment compounds were then dispensed into each well using the D300 liquid handler. The cells were then incubated for the indicated time at 37° C. The cells were harvested by scraping the cells and transferring to a 2 ml tube. The cells were spun to form a pellet. Next, RNA was extracted using the Qiagen RNeasy Mini kit according to manufacture protocols.” left out

Sequence of HDAC3 (O15379 whole entry): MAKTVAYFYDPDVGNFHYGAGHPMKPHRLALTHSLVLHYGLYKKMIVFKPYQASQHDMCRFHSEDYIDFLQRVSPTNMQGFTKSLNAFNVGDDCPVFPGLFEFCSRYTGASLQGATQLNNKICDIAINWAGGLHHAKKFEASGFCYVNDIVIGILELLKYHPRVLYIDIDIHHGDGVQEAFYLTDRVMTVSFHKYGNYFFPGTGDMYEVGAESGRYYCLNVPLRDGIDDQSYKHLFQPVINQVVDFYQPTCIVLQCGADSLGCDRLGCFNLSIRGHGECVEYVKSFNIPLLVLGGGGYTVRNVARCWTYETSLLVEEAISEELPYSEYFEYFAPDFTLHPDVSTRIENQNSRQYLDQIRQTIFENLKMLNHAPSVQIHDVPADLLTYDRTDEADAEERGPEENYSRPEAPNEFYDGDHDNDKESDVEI
Sequence of HDAC3 (Q9Y618 395-489 partner): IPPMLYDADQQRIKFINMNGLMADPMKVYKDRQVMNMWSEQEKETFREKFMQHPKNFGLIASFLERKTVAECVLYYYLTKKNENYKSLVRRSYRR

SMILES: O=C(NO)c1cnc(NC2(c3ccccc3)CCN(C(=O)Nc3ccccc3)CC2)nc1 [Compound 001, N-hydroxy-2-((4-phenyl-1-(phenylcarbamoyl)piperidin-4-yl)amino)pyrimidine-5-carboxamide]
- IC50 (HDAC3): 1010 nM
- increase in the percentage of HbG relative to other beta-like globin transcripts (fetal globin (HbG)): 2 fold
- fold change of genes associated with maturation ([1]; 2 days, 3 μM): induces gene expression changes that are consistent with maturation
- fold change of genes associated with maturation ([1]; 48 hours, 0.5, 2 and 4 μM): induces gene expression changes consistent with maturation at 4 μM, but not at 2 μM or less
- fold change of genes associated with maturation [2]: induces gene expression changes that are consistent with maturation
